PubChem BioAssay (NCI)
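Dose response: 5 concentrations. Exposure: 48 h. Format: 96-well plates. Endpoint: linear interpolation; highest concentration if not reached. At the GI50, growth is halved. TGI denotes the concentration required for complete inhibition of growth.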

Key:
Assay in all cases: NCI tumour cell line growth inhibition, 48 h
[1] = test system: OVCAR-5 ovarian
[2] = test system: CCRF-CEM leukemia
[3] = test system: OVCAR-3 ovarian
[4] = test system: SNB-19 CNS
[5] = test system: SNB-75 CNS
[6] = test system: MOLT-4 leukemia
[7] = test system: COLO 205 colon
[8] = test system: HCT-116 colon
[9] = test system: NCI/ADR-RES ovarian
[10] = test system: HT29 colon
[11] = test system: OVCAR-8 ovarian
[12] = test system: HCC-2998 colon
[13] = test system: CAKI-1 renal
[14] = test system: PC-3 prostate
[15] = test system: K-562 leukemia
[16] = test system: ACHN renal
[17] = test system: SK-MEL-28 melanoma
[18] = test system: A498 renal
[19] = test system: RPMI-8226 leukemia
[20] = test system: HS 578T breast
[21] = test system: HCT-15 colon
[22] = test system: SF-268 CNS
[23] = test system: LOX IMVI melanoma
[24] = test system: NCI-H226 lung
[25] = test system: SF-295 CNS
[26] = test system: UACC-257 melanoma
[27] = test system: SF-539 CNS
[28] = test system: U251 CNS
[29] = test system: TK-10 renal
[30] = test system: MDA-MB-231 breast
[31] = test system: EKVX NSCLC
[32] = test system: NCI-H522 lung
[33] = test system: MCF7 breast
[34] = test system: MDA-MB-435
[35] = test system: 786-0 renal
[36] = test system: KM12 colon
[37] = test system: MALME-3M melanoma
[38] = test system: NCI-H460 lung
[39] = test system: A549 NSCLC
[40] = test system: HOP-92 NSCLC
[41] = test system: HOP-62 NSCLC
[42] = test system: NCI-H23 lung
[43] = test system: DU-145 prostate
[44] = test system: SR leukemia
[45] = test system: SK-MEL-5 melanoma
[46] = test system: SW-620 colon
[47] = test system: SN12C renal
[48] = test system: IGROV1 ovarian
[49] = test system: RXF 393 renal
[50] = test system: UO-31 renal
[51] = test system: HL-60(TB) leukemia
[52] = test system: SK-MEL-2 melanoma
[53] = test system: BT-549 breast
[54] = test system: M14 melanoma
[55] = test system: OVCAR-4 ovarian
[56] = test system: UACC-62 melanoma
[57] = test system: SK-OV-3 ovarian
[58] = test system: T-47D breast

Work on `COCCN(C(=O)c1ccccc1)C1CCC2(SCCS2)c2[nH]c3ccccc3c21` (stereo not drawn) yielded a TGI [1] of over 100 µM, a TGI [2] of over 100 µM and a TGI [3] of over 100 µM. The TGI [4] was over 100 µM, the TGI [5] was over 100 µM and the TGI [6] was 69.4 µM. For the same compound, the TGI [7] was over 100 µM, the TGI [8] was over 100 µM and the TGI [9] was over 100 µM. For the same compound, the TGI [10] was over 100 µM, the TGI [11] was over 100 µM and the TGI [12] was over 100 µM. The TGI [13] was over 100 µM, the TGI [14] was 59.3 µM and the TGI [15] was over 100 µM. For the same compound, the TGI [16] was over 100 µM, the TGI [17] was over 100 µM and the TGI [18] was over 100 µM. It also gave a TGI [19] of 61.8 µM, a TGI [20] of over 100 µM and a TGI [21] of over 100 µM. It also gave a TGI [22] of over 100 µM, a TGI [23] of over 100 µM and a TGI [24] of over 100 µM. For the same compound, the TGI [25] was over 100 µM, the TGI [26] was over 100 µM and the TGI [27] was over 100 µM. For the same compound, the TGI [28] was over 100 µM, the TGI [29] was over 100 µM and the TGI [30] was over 100 µM. It also gave a TGI [31] of over 100 µM, a TGI [32] of 98.8 µM and a TGI [33] of over 100 µM. For the same compound, the TGI [34] was 69.6 µM, the TGI [35] was over 100 µM and the TGI [36] was over 100 µM. It also gave a TGI [37] of over 100 µM, a TGI [38] of over 100 µM and a TGI [39] of 68.2 µM. For the same compound, the TGI [40] was 78 µM, the TGI [41] was over 100 µM and the TGI [42] was over 100 µM. The TGI [43] was over 100 µM, the TGI [44] was over 100 µM and the TGI [45] was over 100 µM. It also gave a TGI [46] of over 100 µM, a TGI [47] of over 100 µM and a TGI [48] of over 100 µM. The TGI [49] was 87.7 µM, the TGI [50] was over 100 µM and the TGI [51] was 55.2 µM.
Compound `c1ccc(-c2c(-c3ccccc3)[n+](Cc3ccc4ccccc4c3)cn2Cc2ccc3ccccc3c2)cc1` has a GI50 [9] of 2.13 µM, a TGI [9] of 5.12 µM and a GI50 [16] of 1.47 µM. It also gave a TGI [16] of 2.9 µM, a GI50 [20] of 1.74 µM and a TGI [20] of 4.91 µM. The GI50 [40] was 0.122 µM and the TGI [40] was 1.26 µM.
For `COC(=O)N[C@H]1CCc2cc(OC)c(OC)c(OC)c2-c2ccc(SC)c(=O)cc21`, the GI50 [1] was under 0.01 µM, the TGI [1] was over 100 µM and the GI50 [2] was under 0.01 µM. The TGI [2] was over 100 µM, the GI50 [3] was under 0.01 µM and the GI50 [4] was under 0.01 µM. It also gave a TGI [4] of over 100 µM, a GI50 [5] of under 0.01 µM and a TGI [5] of over 100 µM. It also gave a GI50 [6] of under 0.01 µM, a TGI [6] of over 70.5 µM and a GI50 [7] of under 0.01 µM. It also gave a GI50 [8] of under 0.01 µM, a TGI [8] of over 100 µM and a GI50 [9] of 0.0247 µM. For the same compound, the TGI [9] was over 100 µM, the GI50 [10] was under 0.01 µM and the TGI [10] was over 100 µM. For the same compound, the GI50 [11] was under 0.01 µM, the TGI [11] was over 100 µM and the GI50 [12] was under 0.01 µM. For the same compound, the TGI [12] was over 100 µM, the GI50 [13] was under 0.0166 µM and the TGI [13] was over 100 µM. It also gave a GI50 [14] of under 0.01 µM, a TGI [14] of over 100 µM and a GI50 [15] of under 0.01 µM. It also gave a TGI [15] of over 100 µM, a GI50 [52] of 1.76 µM and a TGI [52] of over 100 µM. The GI50 [16] was under 0.01 µM, the TGI [16] was over 100 µM and the GI50 [53] was under 0.01 µM. The TGI [53] was 11 µM, the GI50 [54] was under 0.01 µM and the TGI [54] was over 26.9 µM. It also gave a GI50 [17] of over 100 µM, a TGI [17] of over 100 µM and a GI50 [18] of under 0.01 µM. It also gave a TGI [18] of under 0.0255 µM, a GI50 [19] of under 0.01 µM and a TGI [19] of over 64.5 µM. The GI50 [20] was under 0.01 µM, the TGI [20] was over 100 µM and the GI50 [21] was under 0.01 µM. It also gave a TGI [21] of over 47.3 µM, a GI50 [22] of under 0.01 µM and a TGI [22] of over 100 µM. It also gave a GI50 [23] of under 0.01 µM, a TGI [23] of over 100 µM and a GI50 [24] of under 0.01 µM. It also gave a GI50 [25] of under 0.01 µM, a TGI [25] of 27.1 µM and a GI50 [26] of 50.7 µM. For the same compound, the TGI [26] was over 100 µM, the GI50 [27] was under 0.01 µM and the GI50 [28] was under 0.01 µM. For the same compound, the TGI [28] was over 43.5 µM, the GI50 [29] was 13.1 µM and the TGI [29] was over 100 µM. The GI50 [55] was 0.0205 µM, the TGI [55] was over 100 µM and the GI50 [30] was under 0.01 µM. It also gave a TGI [30] of 29 µM, a GI50 [31] of under 0.01 µM and a TGI [31] of over 100 µM. The GI50 [32] was under 0.01 µM, the TGI [32] was over 19.9 µM and the GI50 [33] was under 0.01 µM. The TGI [33] was over 100 µM, the GI50 [35] was under 0.01 µM and the TGI [35] was over 100 µM. It also gave a GI50 [36] of under 0.01 µM, a TGI [36] of over 100 µM and a GI50 [37] of under 0.012 µM. The TGI [37] was over 100 µM, the GI50 [38] was under 0.01 µM and the TGI [38] was over 100 µM. The GI50 [39] was under 0.01 µM, the TGI [39] was over 100 µM and the GI50 [40] was 0.0631 µM. The TGI [40] was over 64.8 µM, the GI50 [41] was under 0.01 µM and the TGI [41] was over 100 µM. It also gave a GI50 [42] of under 0.01 µM, a TGI [42] of over 100 µM and a GI50 [43] of under 0.01 µM. For the same compound, the TGI [43] was over 100 µM, the GI50 [44] was under 0.01 µM and the TGI [44] was over 100 µM. The GI50 [56] was under 0.01 µM, the TGI [56] was over 100 µM and the GI50 [45] was under 0.01 µM. The TGI [45] was 0.0191 µM, the GI50 [46] was under 0.01 µM and the TGI [46] was over 100 µM. It also gave a GI50 [47] of under 0.01 µM, a TGI [47] of over 100 µM and a GI50 [57] of under 0.01 µM. For the same compound, the TGI [57] was over 100 µM, the GI50 [48] was under 0.01 µM and the TGI [48] was over 100 µM. The GI50 [58] was over 100 µM, the TGI [58] was over 100 µM and the GI50 [49] was under 0.01 µM. The TGI [49] was over 100 µM, the GI50 [50] was under 0.0447 µM and the TGI [50] was over 100 µM. For the same compound, the GI50 [51] was under 0.01 µM.
